Data published in the NIST ThermoML archive (doi:10.1016/j.jct.2006.08.009).

Experiment: mn = molality of the nth substance listed, in mol/kg
Conditions: 350 kPa, Liquid; for apparent molar heat capacity: Extra sensitive DSC

O[C@H]1[C@H](O)[C@@H](O)[C@H](O)[C@@H](O)[C@H]1O [cis-1,2,3,5-trans-4,6-cyclohexanehexol] + O
Conditions	apparent molar heat capacity [J/K/mol]	mass density [kg/m3]
323.15 K, m1 = 0.05	402.6	–
323.15 K, m1 = 0.0814	405.9	–
323.15 K, m1 = 0.1	405	–
323.15 K, m1 = 0.1028	401	–
323.15 K, m1 = 0.248	400.7	–
323.15 K, m1 = 0.3973	397.3	–
323.15 K, m1 = 0.4994	398.9	–
328.15 K, m1 = 0.02	410	987.32
328.15 K, m1 = 0.05	409.6	989.63
328.15 K, m1 = 0.0814	412.6	992.01
328.15 K, m1 = 0.1	411.7	992.93
328.15 K, m1 = 0.1028	408.3	993.47
328.15 K, m1 = 0.248	407.8	1004.2
328.15 K, m1 = 0.3973	404.3	1014.83
328.15 K, m1 = 0.4994	405.6	1022.36
333.15 K, m1 = 0.02	416	–
333.15 K, m1 = 0.05	415.7	–
333.15 K, m1 = 0.0814	418.7	–
333.15 K, m1 = 0.1	417.8	–
333.15 K, m1 = 0.1028	414.9	–
333.15 K, m1 = 0.248	414.1	–
333.15 K, m1 = 0.3973	410.5	–
333.15 K, m1 = 0.4994	411.6	–
338.15 K, m1 = 0.02	421	982.18
338.15 K, m1 = 0.05	421.5	984.47
338.15 K, m1 = 0.0814	424.1	986.82
338.15 K, m1 = 0.1	423.2	987.73
338.15 K, m1 = 0.1028	420.6	988.27
338.15 K, m1 = 0.248	419.6	998.91
338.15 K, m1 = 0.3973	416.1	1009.45
338.15 K, m1 = 0.4994	416.9	1016.94
343.15 K, m1 = 0.02	427	–
343.15 K, m1 = 0.05	426.7	–
343.15 K, m1 = 0.0814	429	–
343.15 K, m1 = 0.1	427.9	–
343.15 K, m1 = 0.1028	425.9	–
343.15 K, m1 = 0.248	424.6	–
343.15 K, m1 = 0.3973	421	–
343.15 K, m1 = 0.4994	421.6	–
348.15 K, m1 = 0.02	430.7	976.46
348.15 K, m1 = 0.05	431.2	978.72
348.15 K, m1 = 0.0814	433.3	981.07
348.15 K, m1 = 0.1	431.9	981.98
348.15 K, m1 = 0.1028	430.3	982.51
348.15 K, m1 = 0.248	428.9	993.1
348.15 K, m1 = 0.3973	425.2	1003.55
348.15 K, m1 = 0.4994	425.8	1010.99
353.15 K, m1 = 0.02	435.4	–
353.15 K, m1 = 0.05	435.4	–
353.15 K, m1 = 0.0814	437.2	–
353.15 K, m1 = 0.1	435.3	–
353.15 K, m1 = 0.1028	434.1	–
353.15 K, m1 = 0.248	432.5	–
353.15 K, m1 = 0.3973	428.9	–
353.15 K, m1 = 0.4994	429.3	–
358.15 K, m1 = 0.02	439.4	970.24
358.15 K, m1 = 0.05	439	972.5
358.15 K, m1 = 0.0814	440.6	974.84
358.15 K, m1 = 0.1	438.3	975.72
358.15 K, m1 = 0.1028	437.2	976.24
358.15 K, m1 = 0.248	435.7	986.78
358.15 K, m1 = 0.3973	432	997.2
358.15 K, m1 = 0.4994	432.4	–
363.15 K, m1 = 0.02	442.2	–
363.15 K, m1 = 0.05	441.7	–
363.15 K, m1 = 0.0814	443.4	–
363.15 K, m1 = 0.1	440.5	–
363.15 K, m1 = 0.1028	439.4	–
363.15 K, m1 = 0.248	438.2	–
363.15 K, m1 = 0.3973	434.6	–
363.15 K, m1 = 0.4994	434.8	–
368.15 K, m1 = 0.02	–	963.51
368.15 K, m1 = 0.05	–	965.76
368.15 K, m1 = 0.0814	–	968.11
368.15 K, m1 = 0.1	–	969.08
368.15 K, m1 = 0.1028	–	969.48
368.15 K, m1 = 0.248	–	980
368.15 K, m1 = 0.3973	–	990.36
368.15 K, m1 = 0.4994	–	997.73
